Source: US4839385A, “Use of manoalide and its derivatives for modifying calcium homeostasis” (The Regents of the University of California, priority 1987, dated 1989)

Tests used:
Format in all cases: cell-based
[1] = system: plasma membrane calcium channels; experiment: Calcium entry through plasma membrane calcium channels, gastric glands; conditions: 1 μM and less
Text: (§1) The effect of manoalide on intracellular calcium levels was investigated through experiments using gastric glands. These glands contain two types of cells that use either plasma membrane channels or release from intracellular stores to increase cytosolic calcium.

[2] = system: intracellular stores; experiment: Calcium release from intracellular stores, gastric glands; conditions: 30-50 μM
Text: as §1

[3] = system: EL-4; experiment: Inhibition of growth of tumor cell line EL-4
[4] = system: Peptic cells; experiment: CCK or carbachol stimulated increase in calcium (release from intracellular stores) in peptic cells
Protocol: (§2) Gastric glands contain both peptic cells (release of calcium from intracellular stores) and parietal cells (plasma membrane calcium channel). Gastric cells were isolated as described by Muallem, et. al. (Amer. J. Physiol. 248-G216-G228, 1985). Addition of CCK or carbachol to a final concentration of […] and 0.1 mM respectively were used to activate these cells. Muallem et al. (J. Biol. Chem.: In Press, 1986) have shown that these hormones stimulate these cells and result in an increase in free intracellular cytosolic calcium.
(§3) With peptic cells, the hormones CCK or carbachol cause release of calcium from intracellular stores. […] The calcium signal in these cells is different from that observed in the conconavalin stimulated release of calcium from spleen cells.
The calcium transient observed is characteristic of the release of calcium from intracellular stores. If calcium is removed from the extracellular medium it has no effect on the calcium signal.

[5] = system: Parietal cells; experiment: Acid secretion in parietal cells after carbachol or forskolin stimulation
[6] = system: Peptic cells; experiment: Pepsin secretion in peptic cells after CCK, carbachol or forskolin stimulation
Protocol: as §2, §3
To examine the correlation between secretion and the calcium signal, the effects of manoalide on pepsin secretion were quantitated (Table 3).

[7] = system: Mouse spleen cells; experiment: Effect of manoalide on Con A-induced rise in intracellular calcium in mouse spleen cells (FURA-2)
Protocol: When 40 μg/ml Con A was added to single cell suspensions of mouse spleen cells were prepared by the standard methods, a rapid rise in intracellular calcium was observed. This calcium signal is characteristic of calcium moving from outside the cell to inside through a plasma membrane channel. If calcium is removed from the external medium, the rise in intracellular calcium is completely absent.
(§4) The concentration of free intracellular calcium was determined by loading the cells with a calcium sensitive florescent dye, FURA-2® (Grynkiewicz, G., Poenig, M. and Tsien, R. J., Biol. Chem 260: 3440-3450, 1985). Fluorescence measurements and calibration curves were done the same as for Quin-2, Pandol, S., Schoeffield, M., Sachs, G. and Muallem, S. (J. Biol. Chem 10081-10086, 1985).
(§5) Once the cells were loaded, aliquots (10^6 cells/ml) were placed in cuvettes and the baseline intracellular calcium concentration determined.
(§6) Manoalide was dissolved in polyethylene glycol 400 or dimethylsulfoxide and added as indicated before the Con A was added to the cuvette.
(§7) *All cells were preincubated at 37° C. for 5 minutes before
(§8) addition of Con A (40 μg/ml).

[8] = system: Human lymphocytes; experiment: Effect of manoalide on Con A-induced calcium rise in human lymphocytes (FURA-2); conditions: Lymphocyte, 5 min preincubation 37° C., Con A 40 μg/ml
Protocol: as §4, §5, §6
Similar results were obtained with human lymphocytes isolated and prepared according to the method of Muallem, et al.
as §7, §8

[9] = system: A431 cells; experiment: EGF-induced calcium signal in A431 human epidermoid carcinoma cells; conditions: 1.5 μM; 5 minutes; EGF 5 μg/ml
Protocol: The A431 cell line, human epidermoid carcinoma cell, can be activated with 5 μg/ml epidermal growth factor (EGF). Sawyer, S. T. and Cohen, S (Biochemistry 20, 6280-6286, 1981) have shown that EGF enhances calcium uptake in these cells.
A431 Cells were grown in 150 ml Falcon flasks containing Dulbecco's modified Eagle's medium (Gibco) supplemented with 10% fetal calf serum (Irvine Scientific) and gentamycin.

CC1=C(CC/C(C)=C/CCC2=CCC(C3=CC(=O)OC3O)OC2O)C(C)(C)CCC1 (centres unmarked) [manoalide]
calcium entering through the plasma membrane calcium channels [1]: inhibits calcium from entering
calcium release from intracellular stores [2]: blocks calcium release
tumor cell growth inhibition [3]: inhibited from growing
inhibition of CCK or carbachol stimulated increase in calcium ([4]; 5 μM): no inhibition
inhibition of the calcium signal ([4]; 50 μM or higher): showed inhibition of the calcium signal
nature of the inhibition of the calcium signal ([4]; 50 μM or higher): irreversible and time dependent
inhibition of the calcium signal ([4]; 60 μM): significant inhibition of the calcium signal
activity at 0.1 µM ([5]; Carbachol Stimulation): 50%
activity at 0.1 µM ([5]; Forskolin): 100%
activity at 0.5 µM ([5]; Carbachol Stimulation): 10%
activity at 0.5 µM ([5]; Forskolin): 100%
activity at 5 µM ([5]; Carbachol Stimulation): 0%
activity at 5 µM ([5]; Forskolin): 100%
activity at 50 µM ([5]; Carbachol Stimulation): 0%
activity at 50 µM ([5]; Forskolin): 100%
acid secretion in parietal cells ([5]; preincubation with 0.1-5.0 μM): blocked acid secretion
activity at 0.1 µM ([6]; CCK Stimulation (N = 5)): 100%
activity at 0.1 µM ([6]; Carbachol (2)): 100%
activity at 0.1 µM ([6]; Forskolin (2)): 100%
activity at 0.5 µM ([6]; CCK Stimulation (N = 5)): 105%
activity at 0.5 µM ([6]; Carbachol (2)): 110%
activity at 0.5 µM ([6]; Forskolin (2)): 100%
activity at 5 µM ([6]; CCK Stimulation (N = 5)): 115%
activity at 5 µM ([6]; Carbachol (2)): 110%
activity at 5 µM ([6]; Forskolin (2)): 100%
activity at 50 µM ([6]; CCK Stimulation (N = 5)): 60%
activity at 50 µM ([6]; Carbachol (2)): 40%
activity at 50 µM ([6]; Forskolin (2)): 100%
minimal effective concentration ([6]; peptic cells, read-out: concentration below which no inhibition of the biological effect was observed): > 50 µM
inhibition of the rise in intracellular calcium ([7]; 0.5 μM, 5 min preincubation 37° C., 40 μg/ml Con A): complete inhibition
nature of the inhibition of the calcium signal ([7]; Con A 40 μg/ml): time dependent and irreversible
inhibition at 0.01 µM ([7]; Mus musculus, 0.01 μM, 5 min preincubation 37° C., Con A 40 μg/ml): 0%
inhibition at 0.1 µM ([7]; Mus musculus, 0.1 μM, 5 min preincubation 37° C., Con A 40 μg/ml): 30%
inhibition at 0.3 µM ([7]; Mus musculus, 0.3 μM, 5 min preincubation 37° C., Con A 40 μg/ml): 70%
inhibition at 1 µM ([7]; Mus musculus, 1.0 μM, 5 min preincubation 37° C., Con A 40 μg/ml): 100%
inhibition at 0.05 µM ([8]; 0.05 μM): 0%
inhibition at 0.1 µM ([8]; 0.1 μM): 15%
inhibition at 0.25 µM ([8]; 0.25 μM): 30%
inhibition at 0.5 µM ([8]; 0.5 μM): 65%
inhibition at 1 µM ([8]; 1.0 μM): 100%
effect on the Ca signal [9]: complete abolition
